Key:
[1] = tested on: Tyrosine-protein kinase ABL1 (Homo sapiens), P00519 [F317L]; details: Compound concentration 100.0 nM
[2] = tested on: Tyrosine-protein kinase ABL1 (Homo sapiens), P00519 [Q252H]; details: Compound concentration 100.0 nM
[3] = target: Atypical kinase COQ8B, mitochondrial (Homo sapiens) (UniProt Q96D53); details: Compound concentration 100.0 nM
[4] = target: Cytoplasmic tyrosine-protein kinase BMX (Homo sapiens) (UniProt P51813); details: Compound concentration 100.0 nM
[5] = target: Calcium/calmodulin-dependent protein kinase type 1D (Homo sapiens) (UniProt Q8IU85); details: Compound concentration 100.0 nM
[6] = target: Calcium/calmodulin-dependent protein kinase kinase 2 (Homo sapiens) (UniProt Q96RR4); details: Compound concentration 100.0 nM
[7] = target: Dual specificity protein kinase CLK2 (Homo sapiens) (UniProt P49760); details: Compound concentration 100.0 nM
[8] = target: Casein kinase I isoform alpha (Homo sapiens) (UniProt P48729); details: Compound concentration 100.0 nM
[9] = target: Casein kinase I isoform epsilon (Homo sapiens) (UniProt P49674); details: Compound concentration 100.0 nM
[10] = target: Serine/threonine-protein kinase DCLK3 (Homo sapiens) (UniProt Q9C098); details: Compound concentration 100.0 nM
[11] = target: Mitogen-activated protein kinase kinase kinase 12 (Homo sapiens) (UniProt Q12852); details: Compound concentration 100.0 nM
[12] = target: Dual specificity tyrosine-phosphorylation-regulated kinase 1B (Homo sapiens) (UniProt Q9Y463); details: Compound concentration 100.0 nM
[13] = target: Ephrin type-A receptor 1 (Homo sapiens) (UniProt P21709); details: Compound concentration 100.0 nM
[14] = target: Ephrin type-B receptor 6 (Homo sapiens) (UniProt O15197); details: Compound concentration 100.0 nM
[15] = target: Receptor tyrosine-protein kinase erbB-4 (Homo sapiens) (UniProt Q15303); details: Compound concentration 100.0 nM
[16] = target: Mitogen-activated protein kinase 1 (Homo sapiens) (UniProt P28482); details: Compound concentration 100.0 nM
[17] = target: Serine/threonine-protein kinase/endoribonuclease IRE1 (Homo sapiens) (UniProt O75460); details: Compound concentration 100.0 nM
[18] = tested on: Receptor-type tyrosine-protein kinase FLT3 (Homo sapiens), P36888 [K663Q]; details: Compound concentration 100.0 nM
[19] = target: Hormonally up-regulated neu tumor-associated kinase (Homo sapiens) (UniProt P57058); details: Compound concentration 100.0 nM
[20] = target: Mitogen-activated protein kinase 8 (Homo sapiens) (UniProt P45983); details: Compound concentration 100.0 nM
Chain of Mitogen-activated protein kinase 8 (Homo sapiens) (P45983 whole entry): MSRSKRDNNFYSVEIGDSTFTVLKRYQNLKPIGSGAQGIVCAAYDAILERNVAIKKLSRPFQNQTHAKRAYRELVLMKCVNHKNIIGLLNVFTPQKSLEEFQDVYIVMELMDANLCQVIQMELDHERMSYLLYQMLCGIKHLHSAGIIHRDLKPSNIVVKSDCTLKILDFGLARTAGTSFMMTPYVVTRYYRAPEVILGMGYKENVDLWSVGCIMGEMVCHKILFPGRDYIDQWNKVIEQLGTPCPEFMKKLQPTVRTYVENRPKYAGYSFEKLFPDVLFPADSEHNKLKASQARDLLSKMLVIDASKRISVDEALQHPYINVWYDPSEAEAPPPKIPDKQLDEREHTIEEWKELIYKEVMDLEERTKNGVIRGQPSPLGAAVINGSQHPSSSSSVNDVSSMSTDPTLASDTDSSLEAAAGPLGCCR

[21] = target: Mitogen-activated protein kinase kinase kinase 13 (Homo sapiens) (UniProt O43283); details: Compound concentration 100.0 nM
[22] = target: Mitogen-activated protein kinase kinase kinase kinase 3 (Homo sapiens) (UniProt Q8IVH8); details: Compound concentration 100.0 nM
[23] = target: Maternal embryonic leucine zipper kinase (Homo sapiens) (UniProt Q14680); details: Compound concentration 100.0 nM
[24] = target: Tyrosine-protein kinase Mer (Homo sapiens) (UniProt Q12866); details: Compound concentration 100.0 nM
Chain of Tyrosine-protein kinase Mer (Homo sapiens) (Q12866 whole entry): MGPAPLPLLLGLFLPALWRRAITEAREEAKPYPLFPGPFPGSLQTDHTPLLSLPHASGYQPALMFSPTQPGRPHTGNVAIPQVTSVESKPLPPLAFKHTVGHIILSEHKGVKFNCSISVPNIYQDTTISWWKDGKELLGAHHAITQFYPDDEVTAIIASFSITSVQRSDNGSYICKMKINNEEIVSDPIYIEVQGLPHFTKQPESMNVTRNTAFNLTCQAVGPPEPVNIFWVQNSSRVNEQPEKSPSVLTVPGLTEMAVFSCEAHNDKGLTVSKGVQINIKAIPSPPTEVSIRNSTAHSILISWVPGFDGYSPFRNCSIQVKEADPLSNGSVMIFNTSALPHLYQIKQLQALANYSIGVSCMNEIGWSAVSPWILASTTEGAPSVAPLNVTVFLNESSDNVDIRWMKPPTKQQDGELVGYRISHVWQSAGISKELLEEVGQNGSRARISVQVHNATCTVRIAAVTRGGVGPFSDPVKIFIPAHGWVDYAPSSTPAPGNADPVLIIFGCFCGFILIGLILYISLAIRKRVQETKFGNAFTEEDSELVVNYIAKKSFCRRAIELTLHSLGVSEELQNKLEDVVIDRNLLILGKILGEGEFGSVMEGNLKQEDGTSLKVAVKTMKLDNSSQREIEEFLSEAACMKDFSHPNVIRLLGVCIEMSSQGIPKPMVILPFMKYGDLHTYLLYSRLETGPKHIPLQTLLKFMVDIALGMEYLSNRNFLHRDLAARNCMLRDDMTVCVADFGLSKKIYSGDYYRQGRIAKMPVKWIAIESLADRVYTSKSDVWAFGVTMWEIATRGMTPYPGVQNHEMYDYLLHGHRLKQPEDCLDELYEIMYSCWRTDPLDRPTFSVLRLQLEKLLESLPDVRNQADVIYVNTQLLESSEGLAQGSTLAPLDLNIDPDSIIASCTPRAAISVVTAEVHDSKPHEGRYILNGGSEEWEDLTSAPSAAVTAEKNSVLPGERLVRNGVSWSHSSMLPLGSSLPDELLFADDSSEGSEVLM

[25] = target: Mitogen-activated protein kinase kinase kinase 10 (Homo sapiens) (UniProt Q02779); details: Compound concentration 100.0 nM
[26] = target: Serine/threonine-protein kinase Nek4 (Homo sapiens) (UniProt P51957); details: Compound concentration 100.0 nM
[27] = target: Mitogen-activated protein kinase kinase kinase 14 (Homo sapiens) (UniProt Q99558); details: Compound concentration 100.0 nM
[28] = target: Mitogen-activated protein kinase 12 (Homo sapiens) (UniProt P53778); details: Compound concentration 100.0 nM
Chain of Mitogen-activated protein kinase 12 (Homo sapiens) (P53778 whole entry, canonical isoform): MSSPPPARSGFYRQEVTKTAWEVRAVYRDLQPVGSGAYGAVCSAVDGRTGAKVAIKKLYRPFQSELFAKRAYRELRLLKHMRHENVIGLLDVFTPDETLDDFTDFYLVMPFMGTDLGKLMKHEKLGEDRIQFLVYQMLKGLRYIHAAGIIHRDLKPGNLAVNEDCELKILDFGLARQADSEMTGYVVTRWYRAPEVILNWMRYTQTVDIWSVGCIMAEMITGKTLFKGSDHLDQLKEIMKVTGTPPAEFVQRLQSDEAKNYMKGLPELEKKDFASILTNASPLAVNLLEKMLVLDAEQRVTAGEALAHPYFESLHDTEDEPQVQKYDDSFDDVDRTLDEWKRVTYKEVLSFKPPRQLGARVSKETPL

[29] = tested on: Phosphatidylinositol 4,5-bisphosphate 3-kinase catalytic subunit alpha isoform (Homo sapiens), P42336 [E542K]; details: Compound concentration 100.0 nM
[30] = tested on: Phosphatidylinositol 4,5-bisphosphate 3-kinase catalytic subunit alpha isoform (Homo sapiens), P42336 [Q546K]; details: Compound concentration 100.0 nM
[31] = target: Serine/threonine-protein kinase PLK2 (Homo sapiens) (UniProt Q9NYY3); details: Compound concentration 100.0 nM
[32] = target: Serine/threonine-protein kinase PLK3 (Homo sapiens) (UniProt Q9H4B4); details: Compound concentration 100.0 nM
[33] = target: Protein kinase C eta type (Homo sapiens) (UniProt P24723); details: Compound concentration 100.0 nM
[34] = target: Serine/threonine-protein kinase D1 (Homo sapiens) (UniProt Q15139); details: Compound concentration 100.0 nM
[35] = target: Receptor-interacting serine/threonine-protein kinase 1 (Homo sapiens) (UniProt Q13546); details: Compound concentration 100.0 nM
[36] = target: Proto-oncogene tyrosine-protein kinase ROS (Homo sapiens) (UniProt P08922); details: Compound concentration 100.0 nM
[37] = target: Serine/threonine-protein kinase SIK2 (Homo sapiens) (UniProt Q9H0K1); details: Compound concentration 100.0 nM
Chain of Serine/threonine-protein kinase SIK2 (Homo sapiens) (Q9H0K1 whole entry, looked up): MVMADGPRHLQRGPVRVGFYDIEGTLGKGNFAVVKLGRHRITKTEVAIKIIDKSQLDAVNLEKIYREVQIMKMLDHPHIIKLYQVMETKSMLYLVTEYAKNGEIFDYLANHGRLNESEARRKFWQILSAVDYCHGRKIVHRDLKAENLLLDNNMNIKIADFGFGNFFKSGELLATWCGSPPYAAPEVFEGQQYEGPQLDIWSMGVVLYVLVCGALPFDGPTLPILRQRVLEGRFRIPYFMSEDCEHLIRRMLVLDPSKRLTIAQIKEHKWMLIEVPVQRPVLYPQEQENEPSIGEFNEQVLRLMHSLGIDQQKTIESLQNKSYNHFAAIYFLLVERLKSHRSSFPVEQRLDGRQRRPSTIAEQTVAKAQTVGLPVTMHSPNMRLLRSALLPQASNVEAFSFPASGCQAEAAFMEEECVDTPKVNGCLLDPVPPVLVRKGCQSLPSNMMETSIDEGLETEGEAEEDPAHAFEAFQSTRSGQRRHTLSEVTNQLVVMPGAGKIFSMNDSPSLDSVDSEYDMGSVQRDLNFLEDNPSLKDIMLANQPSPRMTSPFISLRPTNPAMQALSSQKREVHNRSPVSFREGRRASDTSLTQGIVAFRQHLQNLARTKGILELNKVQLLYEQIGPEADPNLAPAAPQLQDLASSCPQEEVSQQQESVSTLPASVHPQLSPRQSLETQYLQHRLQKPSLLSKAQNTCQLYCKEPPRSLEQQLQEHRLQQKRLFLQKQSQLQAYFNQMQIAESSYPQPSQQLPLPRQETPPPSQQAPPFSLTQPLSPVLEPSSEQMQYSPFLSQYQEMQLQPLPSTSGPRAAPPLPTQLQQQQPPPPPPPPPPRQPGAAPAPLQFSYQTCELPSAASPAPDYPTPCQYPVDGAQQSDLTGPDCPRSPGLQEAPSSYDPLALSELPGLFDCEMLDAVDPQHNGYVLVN

[38] = target: Serine/threonine-protein kinase TAO2 (Homo sapiens) (UniProt Q9UL54); details: Compound concentration 100.0 nM
Chain of Serine/threonine-protein kinase TAO2 (Homo sapiens) (Q9UL54 whole entry): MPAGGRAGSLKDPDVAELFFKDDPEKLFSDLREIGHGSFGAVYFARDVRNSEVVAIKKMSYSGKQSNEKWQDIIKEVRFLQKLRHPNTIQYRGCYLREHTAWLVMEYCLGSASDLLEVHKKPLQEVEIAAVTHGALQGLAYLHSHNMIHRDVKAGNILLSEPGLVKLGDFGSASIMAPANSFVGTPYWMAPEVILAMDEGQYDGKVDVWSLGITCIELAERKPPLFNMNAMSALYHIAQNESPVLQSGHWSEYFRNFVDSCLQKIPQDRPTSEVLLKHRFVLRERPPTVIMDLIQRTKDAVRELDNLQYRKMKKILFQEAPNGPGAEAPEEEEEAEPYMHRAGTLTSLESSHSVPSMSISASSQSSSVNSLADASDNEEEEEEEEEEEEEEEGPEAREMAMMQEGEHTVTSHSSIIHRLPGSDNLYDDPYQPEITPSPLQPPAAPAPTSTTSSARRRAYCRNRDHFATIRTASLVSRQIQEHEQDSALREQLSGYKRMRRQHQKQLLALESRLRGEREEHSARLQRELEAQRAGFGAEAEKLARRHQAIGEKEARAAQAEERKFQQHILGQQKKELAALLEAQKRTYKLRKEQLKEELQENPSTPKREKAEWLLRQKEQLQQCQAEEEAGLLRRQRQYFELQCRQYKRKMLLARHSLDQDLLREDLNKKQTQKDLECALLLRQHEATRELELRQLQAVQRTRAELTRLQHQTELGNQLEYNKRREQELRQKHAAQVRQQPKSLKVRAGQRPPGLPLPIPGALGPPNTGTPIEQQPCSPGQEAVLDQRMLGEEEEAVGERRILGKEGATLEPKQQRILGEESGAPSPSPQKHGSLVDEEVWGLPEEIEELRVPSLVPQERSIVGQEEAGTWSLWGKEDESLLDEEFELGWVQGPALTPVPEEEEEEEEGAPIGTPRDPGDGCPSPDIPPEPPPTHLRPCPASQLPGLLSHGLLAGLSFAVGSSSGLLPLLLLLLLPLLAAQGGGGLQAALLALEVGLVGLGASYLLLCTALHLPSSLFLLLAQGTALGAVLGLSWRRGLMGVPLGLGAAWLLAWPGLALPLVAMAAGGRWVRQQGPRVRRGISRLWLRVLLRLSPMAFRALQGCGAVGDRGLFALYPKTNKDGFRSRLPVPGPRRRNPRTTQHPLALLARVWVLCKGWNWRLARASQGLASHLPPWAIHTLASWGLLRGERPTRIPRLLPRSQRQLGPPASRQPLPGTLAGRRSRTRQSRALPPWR

[39] = target: Dual specificity testis-specific protein kinase 1 (Homo sapiens) (UniProt Q15569); details: Compound concentration 100.0 nM
[40] = target: Serine/threonine-protein kinase ULK3 (Homo sapiens) (UniProt Q6PHR2); details: Compound concentration 100.0 nM
Chain of Serine/threonine-protein kinase ULK3 (Homo sapiens) (Q6PHR2 whole entry): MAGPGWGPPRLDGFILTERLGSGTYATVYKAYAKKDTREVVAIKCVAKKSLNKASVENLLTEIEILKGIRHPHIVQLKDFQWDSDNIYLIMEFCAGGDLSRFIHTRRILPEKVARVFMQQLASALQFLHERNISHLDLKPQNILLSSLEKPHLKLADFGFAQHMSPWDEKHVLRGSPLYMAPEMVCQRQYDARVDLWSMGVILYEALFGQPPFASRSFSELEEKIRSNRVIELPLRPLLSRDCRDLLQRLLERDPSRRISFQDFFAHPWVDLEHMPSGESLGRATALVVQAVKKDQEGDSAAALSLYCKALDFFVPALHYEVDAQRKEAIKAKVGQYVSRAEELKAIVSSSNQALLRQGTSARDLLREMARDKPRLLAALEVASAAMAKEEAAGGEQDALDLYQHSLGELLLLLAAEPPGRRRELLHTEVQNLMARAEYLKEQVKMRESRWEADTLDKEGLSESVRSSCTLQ

[41] = target: Serine/threonine-protein kinase WNK3 (Homo sapiens) (UniProt Q9BYP7); details: Compound concentration 100.0 nM
[42] = target: 5-hydroxytryptamine receptor 5A (Homo sapiens) (UniProt P47898); details: Compound concentration 10.0 uM
[43] = target: Sodium-dependent serotonin transporter (Homo sapiens) (UniProt P31645); details: Compound concentration 10.0 uM
Chain of Sodium-dependent serotonin transporter (Homo sapiens) (P31645 whole entry, looked up): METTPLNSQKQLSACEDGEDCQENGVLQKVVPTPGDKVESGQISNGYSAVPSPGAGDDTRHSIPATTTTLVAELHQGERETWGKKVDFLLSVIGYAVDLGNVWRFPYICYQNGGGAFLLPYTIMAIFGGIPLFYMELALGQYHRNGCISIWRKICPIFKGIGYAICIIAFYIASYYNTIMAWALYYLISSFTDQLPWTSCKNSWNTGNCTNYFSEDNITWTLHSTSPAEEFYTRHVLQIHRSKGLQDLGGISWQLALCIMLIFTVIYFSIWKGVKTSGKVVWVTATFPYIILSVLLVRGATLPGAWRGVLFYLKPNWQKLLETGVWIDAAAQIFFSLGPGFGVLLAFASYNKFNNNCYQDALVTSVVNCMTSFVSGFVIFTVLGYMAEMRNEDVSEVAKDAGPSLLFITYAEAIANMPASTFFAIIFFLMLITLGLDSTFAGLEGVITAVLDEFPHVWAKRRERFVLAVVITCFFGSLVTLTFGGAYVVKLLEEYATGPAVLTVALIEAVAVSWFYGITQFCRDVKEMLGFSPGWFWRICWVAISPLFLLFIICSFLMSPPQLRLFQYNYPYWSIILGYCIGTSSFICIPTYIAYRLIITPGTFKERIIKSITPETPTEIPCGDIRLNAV

[44] = target: Muscarinic acetylcholine receptor M2 (Homo sapiens) (UniProt P08172); details: Compound concentration 10.0 uM
[45] = target: Sigma intracellular receptor 2 (Homo sapiens) (UniProt Q5BJF2); details: Compound concentration 10.0 uM

## Cc1ccc(-c2cnc([C@@]3(O)CC[C@H](C(=O)O)C(C)(C)C3)s2)cc1Nc1cccc(C(F)(F)F)n1 [MRL-SYKi-NC]
[1]
  residual activity: 84.4%
[2]
  residual activity: 82.2%
[3]
  residual activity: 98.7%
[4]
  residual activity: 100%
[5]
  residual activity: 89.6%
[6]
  residual activity: 91.5%
[7]
  residual activity: 100%
[8]
  residual activity: 94%
[9]
  residual activity: 87.6%
[10]
  residual activity: 76.2%
[11]
  residual activity: 99.3%
[12]
  residual activity: 97.4%
[13]
  residual activity: 100%
[14]
  residual activity: 78.6%
[15]
  residual activity: 81.2%
[16]
  residual activity: 100%
[17]
  residual activity: 68.6%
[18]
  residual activity: 100%
[19]
  residual activity: 96.2%
[20]
  residual activity: 63.7%
[21]
  residual activity: 100%
[22]
  residual activity: 100%
[23]
  residual activity: 100%
[24]
  residual activity: 100%
[25]
  residual activity: 69.4%
[26]
  residual activity: 84%
[27]
  residual activity: 100%
[28]
  residual activity: 98.8%
[29]
  residual activity: 87.4%
[30]
  residual activity: 100%
[31]
  residual activity: 100%
[32]
  residual activity: 100%
[33]
  residual activity: 74.6%
[34]
  residual activity: 90.1%
[35]
  residual activity: 95.9%
[36]
  residual activity: 91.5%
[37]
  residual activity: 88.9%
[38]
  residual activity: 84.7%
[39]
  residual activity: 95.2%
[40]
  residual activity: 68.1%
[41]
  residual activity: 0%
[42]
  inhibition: -4.56%
[43]
  inhibition: 15.7%
[44]
  inhibition: 23%
[45]
  inhibition: 27.4%

## Cc1cc(Nc2nccc(C)n2)cc(-c2cnc([C@@]3(O)CC[C@H](C(=O)O)C(C)(C)C3)s2)c1 [MRL-SYKi]
[1]
  residual activity: 69.6%
[2]
  residual activity: 32.4%
[3]
  residual activity: 99.4%
[4]
  residual activity: 95.1%
[5]
  residual activity: 97.1%
[6]
  residual activity: 69.7%
[7]
  residual activity: 98%
[8]
  residual activity: 61.6%
[9]
  residual activity: 100%
[10]
  residual activity: 97.3%
[11]
  residual activity: 66.9%
[12]
  residual activity: 69.4%
[13]
  residual activity: 100%
[14]
  residual activity: 34.7%
[15]
  residual activity: 81.9%
[16]
  residual activity: 100%
[17]
  residual activity: 90.2%
[18]
  residual activity: 82.1%
[19]
  residual activity: 100%
[20]
  residual activity: 46.6%
[21]
  residual activity: 100%
[22]
  residual activity: 100%
[23]
  residual activity: 88%
[24]
  residual activity: 81.5%
[25]
  residual activity: 95.1%
[26]
  residual activity: 96.6%
[27]
  residual activity: 89%
[28]
  residual activity: 31.2%
[29]
  residual activity: 66.5%
[30]
  residual activity: 81.6%
[31]
  residual activity: 100%
[32]
  residual activity: 74.6%
[33]
  residual activity: 97.5%
[34]
  residual activity: 100%
[35]
  residual activity: 87.1%
[36]
  residual activity: 97%
[37]
  residual activity: 95.7%
[38]
  residual activity: 97.5%
[39]
  residual activity: 100%
[40]
  residual activity: 56.1%
[41]
  residual activity: 100%
[42]
  inhibition: 10%
[43]
  inhibition: 3.34%
[44]
  inhibition: 8.6%
[45]
  inhibition: 33.5%

— ChEMBL document CHEMBL4507285, “Data for DCP probe MRL-SYKi” (2021)
